Data as given in patent publication US8569291B2, “Bicyclic dihydroimidazolone CGRP receptor antagonists” (Merck Sharp & Dohme Corp., priority 2008, dated 2013).

Molecular target: recombinant human CL receptor/RAMP1 (Homo sapiens (Human), UniProt O60894+Q16602)
Experiment: recombinant receptor binding assay (125I-hCGRP displacement)
Conditions: membranes of HEK 293 cells expressing human CL receptor/RAMP1, 10 pM 125I-hCGRP
Description: RECOMBINANT RECEPTOR: Human CL receptor (Genbank accession number L76380) was subcloned into the expression vector pIREShyg2 (BD Biosciences Clontech) as a 5′NheI and 3′ PmeI fragment. Human RAMP1 (Genbank accession number AJ001014) was subcloned into the expression vector pIRESpuro2 (BD Biosciences Clontech) as a 5′NheI and 3′NotI fragment. HEK 293 cells (human embryonic kidney cells; ATCC #CRL-1573) were cultured in DMEM with 4.5 g/L glucose, 1 mM sodium pyruvate and 2 mM glutamine supplemented with 10% fetal bovine serum (FBS), 100 units/mL penicillin and 100 μg/mL streptomycin, and maintained at 37° C. and 95% humidity. Cells were subcultured by treatment with 0.25% trypsin with 0.1% EDTA in HBSS. Stable cell line generation was accomplished by co-transfecting 10 μg of DNA with 30 ug Lipofectamine 2000 (Invitrogen) in 75 cm^2 flasks. CL receptor and RAMP1 expression constructs were co-transfected in equal amounts. Twenty-four hours after transfection the cells were diluted and selective medium (growth medium+300 μg/mL hygromycin and 1 μg/mL puromycin) was added the following day. A clonal cell line was generated by single cell deposition utilizing a FACS Vantage SE (Becton Dickinson). Growth medium was adjusted to 150 μg/mL hygromycin and 0.5 μg/mL puromycin for cell propagation.
RECOMBINANT RECEPTOR BINDING ASSAY: Cells expressing recombinant human CL receptor/RAMP1 were washed with PBS and harvested in harvest buffer containing 50 mM HEPES, 1 mM EDTA and Complete protease inhibitors (Roche). The cell suspension was disrupted with a laboratory homogenizer and centrifuged at 48,000 g to isolate membranes. The pellets were resuspended in harvest buffer plus 250 mM sucrose and stored at—70° C. For binding assays, 20 μg of membranes were incubated in 1 ml binding buffer (10 mM HEPES, pH 7.4, 5 mM MgCl2, and 0.2% BSA) for 3 hours at room temperature containing 10 pM ^125I-hCGRP (GE Healthcare) and antagonist. The assay was terminated by filtration through 96-well GFB glass fiber filter plates (PerkinElmer) that had been blocked with 0.05% polyethyleneimine. The filters were washed 3 times with ice-cold assay buffer (10 mM HEPES, pH 7.4 and 5 mM MgCl2). Scintillation fluid was added and the plates were counted on a Topcount (Packard). Non-specific binding was determined and the data analysis was carried out with the apparent dissociation constant (Ki) determined by using a non-linear least squares fitting the bound CPM data to the equation below:
[formula] Where Y is observed CPM bound, Ymax is total bound counts, Ymin is non specific bound counts, (Ymax−Ymin) is specific bound counts, % Imax is the maximum percent inhibition, % I min is the minimum percent inhibition, radiolabel is the probe, and the Kd is the apparent dissociation constant for the radioligand for the receptor as determined by Hot saturation experiments.

recombinant human CL receptor/RAMP1, sequence (Q16602 23-461): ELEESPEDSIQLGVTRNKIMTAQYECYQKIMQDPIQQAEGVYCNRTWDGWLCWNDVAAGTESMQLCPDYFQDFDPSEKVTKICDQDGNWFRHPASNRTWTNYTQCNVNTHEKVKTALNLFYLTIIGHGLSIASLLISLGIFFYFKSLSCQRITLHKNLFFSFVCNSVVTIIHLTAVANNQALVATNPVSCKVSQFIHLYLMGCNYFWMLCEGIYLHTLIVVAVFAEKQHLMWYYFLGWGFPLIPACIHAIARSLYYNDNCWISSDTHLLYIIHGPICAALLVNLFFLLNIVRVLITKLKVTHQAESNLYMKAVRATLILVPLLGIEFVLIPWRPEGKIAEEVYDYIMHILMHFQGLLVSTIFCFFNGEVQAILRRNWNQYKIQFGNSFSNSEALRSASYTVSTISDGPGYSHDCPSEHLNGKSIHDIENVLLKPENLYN
recombinant human CL receptor/RAMP1, sequence (O60894 27-148): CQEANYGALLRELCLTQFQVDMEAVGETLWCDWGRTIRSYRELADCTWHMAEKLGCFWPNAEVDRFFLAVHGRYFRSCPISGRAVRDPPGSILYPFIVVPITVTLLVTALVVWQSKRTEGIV

Compound | Ki
O=C(Cn1c(=O)n(-c2ccccn2)c2ccccc21)Nc1ccc2c(c1)CC1(C2)N=C(c2ccccn2)NC1=O (racemic) [Example 2, (±)-2-(2-oxo-3-pyridin-2-yl-2,3-dihydro-1H-benzimidazol-1-yl)-N-(5-oxo-2-pyridin-2-yl-1,1′,3′,5-tetrahydrospiro[imidazole-4,2′-inden]-5′-yl)acetamide] | 570 nM
O=C(Cn1c(=O)n(-c2ccccn2)c2ccccc21)Nc1ccc2c(c1)CC1(C2)N=C(C2CC2)NC1=O (centres unmarked) [Example 3] | 2600 nM
CCCC1=NC2(Cc3ccc(NC(=O)Cn4c(=O)n(-c5ccccn5)c5ccccc54)cc3C2)C(=O)N1 (centres unmarked) [Example 4] | 6400 nM
O=C(Cn1c(=O)n(-c2ccccn2)c2ccccc21)Nc1ccc2c(c1)CC1(C2)N=C(c2cnccn2)NC1=O (centres unmarked) [Example 6] | 630 nM
O=C(Cn1c(=O)n(-c2ccccn2)c2ccccc21)Nc1ccc2c(c1)CC1(C2)N=C(c2ccncc2)NC1=O (centres unmarked) [Example 9] | 160 nM

Now those with a lower Ki, led by results:

Ki | Compound
25 nM | O=C(Cn1c(=O)n(-c2nccs2)c2ccccc21)Nc1ccc2c(c1)CC1(C2)N=C(c2ccccc2)NC1=O (racemic) [Example 1, (±)-N-(5-oxo-2-phenyl-1,1′,3′,5-tetrahydrospiro[imidazole-4,2′-inden]-5′-yl)-2-[2-oxo-3-(1,3-thiazol-2-yl)-2,3-dihydro-1H-benzimidazol-1-yl]acetamide]
0.21 nM | O=C(CN1C(=O)C2(CCCC2)NC[C@H]1c1cc(F)cc(F)c1)Nc1ccc2c(c1)CC1(C2)N=C(c2ccccc2)NC1=O (single isomer, unassigned) [Example 11]
29 nM | O=C(CN1C(=O)C2(CCCC2)NC[C@H]1c1cc(F)cc(F)c1)Nc1ccc2c(c1)CC1(C2)N=C(c2ccccc2)NC1=O (single isomer, unassigned) [Example 12]
35 nM | O=C(Cn1c(=O)n(-c2ccccn2)c2ccccc21)Nc1ccc2c(c1)CC1(C2)N=C(c2ccccc2)NC1=O (centres unmarked) [Example 7]
130 nM | O=C(Cn1c(=O)n(-c2ccccn2)c2ccccc21)Nc1ccc2c(c1)CC1(C2)N=C(c2cccnc2)NC1=O (centres unmarked) [Example 8]
1.6 nM | C[C@@]1(c2cc(F)cc(F)c2)CNC2(CCCC2)C(=O)N1CC(=O)Nc1ccc2c(c1)CC1(C2)N=C(c2ccccc2)NC1=O (some centres unmarked) [Example 13]
